# Laboratory results taken from ChEMBL document CHEMBL5696441 (Nat Chem Biol, 2011).
# What was measured:
# [1] = target: Death-associated protein kinase 2 (Homo sapiens) (UniProt Q9UIK4); assay: Inhibition of human DAPK2 assessed as residual activity at 1 uM using RB-S6P as substrate in presence of 33P-ATP by ProQinase assay relative to control
# [2] = target: Cyclin-dependent kinase 8 (Homo sapiens) (UniProt P49336); assay: Inhibition of CDK8 (unknown origin) assessed as remaining activity at 1 uM by Kinome scan method relative to control
# [3] = target: Calcium/calmodulin-dependent protein kinase kinase 2 (Homo sapiens) (UniProt Q96RR4); assay: Inhibition of CAMKK2 (unknown origin) assessed as remaining activity at 1 uM by Kinome scan method relative to control
# [4] = target: NUAK family SNF1-like kinase 1 (Homo sapiens) (UniProt O60285); assay: Inhibition of ARK5 (unknown origin) assessed as remaining activity at 1 uM by Kinome scan method relative to control
# [5] = target: Casein kinase I isoform gamma-3 (Homo sapiens) (UniProt Q9Y6M4); assay: Inhibition of CSNK1G3 (unknown origin) assessed as remaining activity at 1 uM by Kinome scan method relative to control
# [6] = test system: Epidermal growth factor receptor (Homo sapiens), P00533 [UNDEFINED MUTATION]; assay: Inhibition of human EGFR d747-752/P753S mutant assessed as residual activity at 1 uM using PolyEY as substrate in presence of 33P-ATP by ProQinase assay relative to control
# [7] = target: Phosphorylase b kinase gamma catalytic chain, skeletal muscle/heart isoform (Homo sapiens) (UniProt Q16816); assay: Inhibition of human PHKG1 assessed as residual activity at 1 uM using 3xChocktide-PKC as substrate in presence of 33P-ATP by ProQinase assay relative to control
# [8] = test system: Fibroblast growth factor receptor 1 (Homo sapiens), P11362 [V561M]; assay: Inhibition of human FGFR1 V561M mutant assessed as residual activity at 1 uM using Poly(Ala,Glu,Lys,Tyr)6:2:5:1 as substrate in presence of 33P-ATP by ProQinase assay relative to control
# [9] = target: Serine/threonine-protein kinase PAK 4 (Homo sapiens) (UniProt O96013); assay: Inhibition of human PAK4 assessed as residual activity at 1 uM using bio-4xCHKT as substrate in presence of 33P-ATP by ProQinase assay relative to control
# [10] = target: Ribosomal protein S6 kinase alpha-5 (Homo sapiens) (UniProt O75582); assay: Inhibition of human RPS6KA5 assessed as residual activity at 1 uM using RBER-CHKtide as substrate in presence of 33P-ATP by ProQinase assay relative to control
# [11] = test system: Epidermal growth factor receptor (Homo sapiens), P00533 [L858R,T790M]; assay: Inhibition of human EGFR T790M/L858R mutant assessed as residual activity at 1 uM using PolyEY as substrate in presence of 33P-ATP by ProQinase assay relative to control
# [12] = target: Serine/threonine-protein kinase D2 (Homo sapiens) (UniProt Q9BZL6); assay: Inhibition of human PRKD2 assessed as residual activity at 1 uM using RBER-CHKtide as substrate in presence of 33P-ATP by ProQinase assay relative to control
# [13] = target: MAP/microtubule affinity-regulating kinase 3 (Homo sapiens) (UniProt P27448); assay: Inhibition of human MARK3 assessed as residual activity at 1 uM using RBER-CHKtide as substrate in presence of 33P-ATP by ProQinase assay relative to control
# [14] = target: Aurora kinase B (Homo sapiens) (UniProt Q96GD4); assay: Inhibition of human AuroraB assessed as residual activity at 1 uM using bio-4xCHKT as substrate in presence of 33P-ATP by ProQinase assay relative to control
# [15] = target: MAP kinase-interacting serine/threonine-protein kinase 2 (Homo sapiens) (UniProt Q9HBH9); assay: Inhibition of human MKNK2 assessed as residual activity at 1 uM using RB-S6P as substrate in presence of 33P-ATP by ProQinase assay relative to control
# [16] = Anti-inflammatory activity against human derived high respond PBMC cells assessed as inhibition in stimulated IL-8 cytokine release incubated for 2 hrs in the presence of LPS/SEB/aCD28 by Luminex based sandwich immunoassay; format: functional, cell-based
# [17] = test system: Proto-oncogene tyrosine-protein kinase receptor Ret (Homo sapiens), P07949 [Y791F]; assay: Inhibition of human RET Y791F mutant assessed as residual activity at 1 uM using polyEY as substrate in presence of 33P-ATP by ProQinase assay relative to control
# [18] = target: Rho-associated protein kinase 1 (Homo sapiens) (UniProt Q13464); assay: Inhibition of ROCK1 (unknown origin) assessed as remaining activity at 1 uM by Kinome scan method relative to control
# [19] = target: Ribosomal protein S6 kinase alpha-2 (Homo sapiens) (UniProt Q15349); assay: Inhibition of human RPS6KA2 assessed as residual activity at 1 uM using bio-4xCHKT as substrate in presence of 33P-ATP by ProQinase assay relative to control
# [20] = target: T1, Inhibitor of nuclear factor kappa-B kinase subunit alpha (Homo sapiens) (UniProt O15111); assay: Inhibition of human IKKalpha assessed as residual activity at 1 uM using RBER-CHKtide as substrate in presence of 33P-ATP by ProQinase assay relative to control
# T1 sequence (whole entry): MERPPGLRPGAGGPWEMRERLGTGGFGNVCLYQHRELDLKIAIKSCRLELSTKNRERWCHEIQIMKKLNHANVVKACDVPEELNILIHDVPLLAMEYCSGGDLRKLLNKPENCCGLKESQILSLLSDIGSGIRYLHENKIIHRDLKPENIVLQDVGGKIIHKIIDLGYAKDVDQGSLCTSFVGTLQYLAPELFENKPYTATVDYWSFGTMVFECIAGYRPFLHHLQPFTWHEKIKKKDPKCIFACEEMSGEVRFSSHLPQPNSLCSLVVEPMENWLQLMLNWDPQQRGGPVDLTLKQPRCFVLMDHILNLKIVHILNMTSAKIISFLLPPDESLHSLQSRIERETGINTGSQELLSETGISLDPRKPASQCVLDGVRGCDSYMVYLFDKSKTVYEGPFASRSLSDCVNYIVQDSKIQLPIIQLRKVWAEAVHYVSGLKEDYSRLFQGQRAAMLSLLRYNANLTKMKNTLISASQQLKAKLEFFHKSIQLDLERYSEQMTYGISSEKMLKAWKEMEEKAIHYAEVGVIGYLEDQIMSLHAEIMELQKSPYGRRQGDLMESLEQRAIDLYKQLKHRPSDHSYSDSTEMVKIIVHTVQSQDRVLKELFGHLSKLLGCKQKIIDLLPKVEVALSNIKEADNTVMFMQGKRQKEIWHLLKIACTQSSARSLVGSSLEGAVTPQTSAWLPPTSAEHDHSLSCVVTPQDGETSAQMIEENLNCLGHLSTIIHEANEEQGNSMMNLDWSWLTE
# [21] = target: Mast/stem cell growth factor receptor Kit (Homo sapiens) (UniProt P10721); assay: Inhibition of KIT (unknown origin) assessed as remaining activity at 1 uM by Kinome scan method relative to control
# Sequence of Mast/stem cell growth factor receptor Kit (Homo sapiens) (P10721 whole entry): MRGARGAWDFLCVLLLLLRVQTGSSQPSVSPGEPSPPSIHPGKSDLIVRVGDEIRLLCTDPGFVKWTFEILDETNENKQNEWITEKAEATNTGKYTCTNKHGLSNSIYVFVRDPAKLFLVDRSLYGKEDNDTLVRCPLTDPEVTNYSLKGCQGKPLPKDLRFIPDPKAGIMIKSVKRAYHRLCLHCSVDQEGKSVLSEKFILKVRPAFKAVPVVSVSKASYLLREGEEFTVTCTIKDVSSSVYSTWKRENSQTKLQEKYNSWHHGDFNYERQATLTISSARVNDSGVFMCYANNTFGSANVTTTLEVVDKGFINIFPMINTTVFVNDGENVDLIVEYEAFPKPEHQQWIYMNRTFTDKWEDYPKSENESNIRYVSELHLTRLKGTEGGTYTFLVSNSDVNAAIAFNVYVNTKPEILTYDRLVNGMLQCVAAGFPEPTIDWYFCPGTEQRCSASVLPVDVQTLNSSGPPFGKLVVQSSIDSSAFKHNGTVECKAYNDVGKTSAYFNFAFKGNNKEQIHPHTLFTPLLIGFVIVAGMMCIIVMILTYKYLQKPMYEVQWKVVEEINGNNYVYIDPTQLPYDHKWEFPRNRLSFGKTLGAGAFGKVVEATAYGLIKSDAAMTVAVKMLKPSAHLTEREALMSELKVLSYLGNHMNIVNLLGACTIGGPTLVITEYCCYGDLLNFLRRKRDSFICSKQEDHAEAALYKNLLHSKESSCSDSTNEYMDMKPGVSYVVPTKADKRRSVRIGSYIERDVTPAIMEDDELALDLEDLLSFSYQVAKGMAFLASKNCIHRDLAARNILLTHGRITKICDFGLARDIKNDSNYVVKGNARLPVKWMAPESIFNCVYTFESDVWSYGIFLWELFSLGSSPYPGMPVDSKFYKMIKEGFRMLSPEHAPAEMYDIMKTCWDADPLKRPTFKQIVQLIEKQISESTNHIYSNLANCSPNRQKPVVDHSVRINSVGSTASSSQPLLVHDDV
# Sequence of Calcium/calmodulin-dependent protein kinase kinase 2 (Homo sapiens) (Q96RR4 2-588 limits assumed): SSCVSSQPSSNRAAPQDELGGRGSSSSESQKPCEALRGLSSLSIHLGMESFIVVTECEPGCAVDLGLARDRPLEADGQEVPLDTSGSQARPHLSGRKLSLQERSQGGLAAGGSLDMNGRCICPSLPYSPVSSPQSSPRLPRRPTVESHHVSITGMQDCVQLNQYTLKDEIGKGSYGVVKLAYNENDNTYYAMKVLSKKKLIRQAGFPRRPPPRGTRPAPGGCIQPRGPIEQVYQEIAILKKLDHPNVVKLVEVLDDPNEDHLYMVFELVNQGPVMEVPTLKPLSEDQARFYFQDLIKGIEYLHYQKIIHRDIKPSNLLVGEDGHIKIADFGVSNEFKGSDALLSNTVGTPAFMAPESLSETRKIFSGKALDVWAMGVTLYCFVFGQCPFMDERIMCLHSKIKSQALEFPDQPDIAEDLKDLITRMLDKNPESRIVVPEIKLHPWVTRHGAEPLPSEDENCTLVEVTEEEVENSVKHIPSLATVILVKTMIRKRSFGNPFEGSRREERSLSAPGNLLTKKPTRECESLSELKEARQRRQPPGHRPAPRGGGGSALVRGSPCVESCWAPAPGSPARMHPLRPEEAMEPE
# Sequence of Cyclin-dependent kinase 8 (Homo sapiens) (P49336 whole entry): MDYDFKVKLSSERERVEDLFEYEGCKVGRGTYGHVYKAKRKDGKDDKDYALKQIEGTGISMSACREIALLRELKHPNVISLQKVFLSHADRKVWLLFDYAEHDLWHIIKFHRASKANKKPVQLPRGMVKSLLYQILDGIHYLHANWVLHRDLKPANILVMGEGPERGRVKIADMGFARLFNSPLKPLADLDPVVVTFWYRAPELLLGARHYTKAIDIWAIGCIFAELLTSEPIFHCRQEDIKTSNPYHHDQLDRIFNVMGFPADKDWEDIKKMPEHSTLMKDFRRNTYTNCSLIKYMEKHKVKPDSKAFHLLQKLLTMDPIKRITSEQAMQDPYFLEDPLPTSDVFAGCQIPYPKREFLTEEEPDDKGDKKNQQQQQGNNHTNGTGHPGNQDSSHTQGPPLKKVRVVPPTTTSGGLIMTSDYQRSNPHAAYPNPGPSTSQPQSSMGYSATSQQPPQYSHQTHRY
# Sequence of NUAK family SNF1-like kinase 1 (Homo sapiens) (O60285 whole entry, canonical isoform): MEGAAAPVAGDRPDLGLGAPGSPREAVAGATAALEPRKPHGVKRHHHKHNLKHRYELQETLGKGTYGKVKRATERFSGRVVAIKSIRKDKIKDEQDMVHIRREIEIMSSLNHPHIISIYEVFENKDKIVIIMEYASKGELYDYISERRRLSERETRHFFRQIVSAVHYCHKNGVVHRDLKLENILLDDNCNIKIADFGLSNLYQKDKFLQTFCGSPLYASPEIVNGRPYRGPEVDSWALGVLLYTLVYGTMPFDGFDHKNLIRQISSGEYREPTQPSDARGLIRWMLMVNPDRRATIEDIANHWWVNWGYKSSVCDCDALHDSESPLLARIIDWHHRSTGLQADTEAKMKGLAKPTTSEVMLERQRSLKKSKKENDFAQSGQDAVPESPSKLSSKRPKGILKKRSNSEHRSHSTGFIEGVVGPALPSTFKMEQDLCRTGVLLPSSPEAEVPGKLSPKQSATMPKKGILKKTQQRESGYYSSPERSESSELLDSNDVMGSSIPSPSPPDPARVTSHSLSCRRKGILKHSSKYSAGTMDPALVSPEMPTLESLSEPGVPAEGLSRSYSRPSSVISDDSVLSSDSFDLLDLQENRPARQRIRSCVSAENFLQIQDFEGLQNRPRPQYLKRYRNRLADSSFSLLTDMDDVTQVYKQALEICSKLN
# Sequence of MAP/microtubule affinity-regulating kinase 3 (Homo sapiens) (P27448 whole entry, looked up): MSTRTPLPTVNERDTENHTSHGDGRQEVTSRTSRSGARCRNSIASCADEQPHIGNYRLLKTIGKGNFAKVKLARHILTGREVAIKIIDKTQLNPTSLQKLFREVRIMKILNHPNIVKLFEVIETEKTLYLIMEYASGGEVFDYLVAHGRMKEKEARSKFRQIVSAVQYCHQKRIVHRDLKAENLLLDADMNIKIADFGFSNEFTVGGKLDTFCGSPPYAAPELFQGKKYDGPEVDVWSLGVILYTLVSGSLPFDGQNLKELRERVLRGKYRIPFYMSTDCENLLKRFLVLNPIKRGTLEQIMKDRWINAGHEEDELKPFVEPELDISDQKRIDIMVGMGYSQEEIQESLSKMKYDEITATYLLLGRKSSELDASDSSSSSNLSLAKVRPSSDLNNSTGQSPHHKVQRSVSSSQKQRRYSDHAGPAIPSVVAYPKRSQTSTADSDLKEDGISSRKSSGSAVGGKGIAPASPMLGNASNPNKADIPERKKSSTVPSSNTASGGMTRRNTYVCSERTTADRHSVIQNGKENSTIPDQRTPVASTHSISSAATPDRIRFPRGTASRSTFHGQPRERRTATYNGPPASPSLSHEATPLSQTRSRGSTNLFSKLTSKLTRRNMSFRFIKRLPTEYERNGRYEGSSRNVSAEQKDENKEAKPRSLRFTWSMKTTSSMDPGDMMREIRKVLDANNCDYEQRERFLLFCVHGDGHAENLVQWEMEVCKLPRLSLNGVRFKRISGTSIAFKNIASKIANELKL
# Sequence of Fibroblast growth factor receptor 1 (Homo sapiens), P11362 [V561M] (P11362 whole entry V561M): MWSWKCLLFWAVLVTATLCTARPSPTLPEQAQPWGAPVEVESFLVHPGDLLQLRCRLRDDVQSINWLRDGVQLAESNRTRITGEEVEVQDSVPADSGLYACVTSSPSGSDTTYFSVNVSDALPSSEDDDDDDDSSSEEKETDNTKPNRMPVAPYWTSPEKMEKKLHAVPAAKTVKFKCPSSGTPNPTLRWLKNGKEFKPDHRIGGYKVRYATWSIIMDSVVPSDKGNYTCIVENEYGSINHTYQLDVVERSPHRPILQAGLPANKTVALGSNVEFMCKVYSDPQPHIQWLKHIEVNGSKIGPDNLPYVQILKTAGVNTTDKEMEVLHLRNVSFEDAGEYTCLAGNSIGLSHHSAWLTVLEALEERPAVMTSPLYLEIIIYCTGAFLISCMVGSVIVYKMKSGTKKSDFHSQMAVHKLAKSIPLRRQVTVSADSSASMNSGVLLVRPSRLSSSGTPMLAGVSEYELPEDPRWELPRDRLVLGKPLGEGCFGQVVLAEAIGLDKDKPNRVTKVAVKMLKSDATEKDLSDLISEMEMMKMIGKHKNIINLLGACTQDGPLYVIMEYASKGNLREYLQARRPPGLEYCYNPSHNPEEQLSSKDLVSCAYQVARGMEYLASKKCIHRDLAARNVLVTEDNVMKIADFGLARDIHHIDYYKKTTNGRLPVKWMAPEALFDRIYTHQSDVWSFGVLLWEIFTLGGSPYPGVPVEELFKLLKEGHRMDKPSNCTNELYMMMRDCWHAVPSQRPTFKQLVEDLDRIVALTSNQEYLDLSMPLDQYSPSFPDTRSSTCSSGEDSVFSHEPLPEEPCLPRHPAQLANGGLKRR
# Sequence of MAP kinase-interacting serine/threonine-protein kinase 2 (Homo sapiens) (Q9HBH9 whole entry, looked up): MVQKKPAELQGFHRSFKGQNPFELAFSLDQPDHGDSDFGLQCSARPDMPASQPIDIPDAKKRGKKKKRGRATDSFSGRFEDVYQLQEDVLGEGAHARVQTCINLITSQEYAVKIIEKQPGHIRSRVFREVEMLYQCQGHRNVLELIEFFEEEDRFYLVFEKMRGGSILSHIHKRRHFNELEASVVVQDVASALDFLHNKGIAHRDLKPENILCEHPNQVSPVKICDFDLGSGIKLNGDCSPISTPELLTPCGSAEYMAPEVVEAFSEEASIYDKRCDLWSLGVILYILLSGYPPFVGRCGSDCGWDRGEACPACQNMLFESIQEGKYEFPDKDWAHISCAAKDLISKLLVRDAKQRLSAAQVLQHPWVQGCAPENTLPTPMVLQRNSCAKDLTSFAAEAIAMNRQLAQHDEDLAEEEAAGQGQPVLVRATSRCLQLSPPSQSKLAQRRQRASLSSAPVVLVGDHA
structure (smiles),measurement,setting,value
O=C1c2ccc(Nc3ccc(F)cc3F)cc2CCc2ccc(OC[C@H](O)CO)cc21 [Skepinone-L],Activity,[1],88%
same,Activity,[2],100%
same,Activity,[3],98%
same,Activity,[4],100%
same,Activity,[5],100%
same,Activity,[6],93%
same,Activity,[7],93%
same,Activity,[8],89%
same,Activity,[9],88%
same,Activity,[10],77%
same,Activity,[11],93%
same,Activity,[12],85%
same,Activity,[13],95%
same,Activity,[14],96%
same,Activity,[15],96%
same,IC50,[16],90 nM
same,Activity,[17],141%
same,Activity,[18],100%
same,Activity,[19],90%
same,Activity,[20],88%
same,Activity,[21],93%
